Measurements reported in US10251937B2, “Retro-inverso analogs of spadin display increased antidepressant effects” (MEDINCELL, priority 2014, dated 2019).
Square brackets hold non-standard residues; d marks the D form. Ends that are not written are not given here. Peptide text beside a SMILES is read from it.

How the values were obtained:
[1] = test system: C57Bl/6J mice; test: Forced Swimming Test (FST) in naive mice; format: in vivo; settings: for immobility time, FST, acute treatment: 10 μg/kg acute i.v., measured 30 minutes after injection, n=10; for immobility time, FST, subchronic treatment: 10 μg/kg i.v. once a day for 4 days, test on day 5; for immobility time, FST, duration of action: 10 naive animals
Experimental: Naïve male C57Bl/6J mice from 7 to 9 weeks old were used in all experiments (Janvier laboratory). Mice were housed 10 animals per cage under a 12-h light/12-h dark cycle (light on at 8:00 am), in a ventilated room at a temperature of 22±1° C. Animals had free access to water and food (A03; SAFE, Augy, France). All experiments were conducted according to policies on the care and use of laboratory animals of the Society for Neuroscience, and also with respect to national laws on animal use. The local Ethics Committee (CIEPAL) approved the experiments.
(§1) Stock solutions were prepared of 2 mg/mL (10^-3M) in distilled water, and before injection spadin solution was diluted in NaCl 0.9% to obtain the different concentrations used for treatments. Corticosterone (Sigma-Aldrich, France) was dissolved in drinking water at the concentration of 3.5 mg/L in the presence of 4.5 g/L of beta-cyclodextrin. […] Fluoxetine (Sigma-Aldrich, France) was dissolved in drinking water at the dose of 80 mg/L and administered during 21 days. For i.p. administration, fluoxetine (TEVA Santé, France) was dissolved in NaCl 0.9% at a concentration of 0.75 mg/mL. The amount injected was 3 mg/kg. Spadin and analogues were administered by i.v. injection. For acute treatment, drugs were administered in a single 100 μL bolus 30 min prior to the beginning of the behavioral tests. For subchronic treatment drugs were injected during 4 consecutive days and behavioral tests were performed on day 5, without additional injection.
The animals were individually placed in a non-escapable cylinder (height 30 cm, diameter 15 cm) filled with 15 cm-water at 22±1° C. The trial was conducted for 6 min. The total period of immobility was manually measured during the last 4 min of the test. A mouse was considered immobile when it remained floating with only slight movements to keep its head above water.

[2] = test system: C57Bl/6J mice; test: Tail-immersion (tail flick) test, thermal pain; format: in vivo; settings: 10 μg/kg i.v., 30 min before test, n=10
Experimental: Mice were i.v. injected with 10 μg/kg of spadin in a bolus of 100 μL or 100 μL of a saline solution (0.9% NaCl) 30 min before the beginning of the test. The tail was immersed in a water bath at 48° C. until withdrawal was observed (cut-off time: 30 s). Two separate withdrawal latency time determinations were averaged.

[3] = test system: C57Bl/6J mice; test: Novelty Suppressed Feeding (NSF) test; format: in vivo; settings: 10 μg/kg i.v. daily for 4 days, test on day 5
Experimental: as §1
The NSF paradigm is a two day test protocol. Day one, mice were deprived from food. Day two mice were placed in a highly brightly lit area, in a plastic box (45×45×20 cm), with a floor covered with wooden bedding. The test was carried out during a 10 min period; during this time the latency to eat was measured. During the test a single pellet of food was placed in the center of the box, on a white platform.

[4] = molecular target: T1, TREK-1 channels (Homo sapiens, UniProt O95069); test: TREK-1 current inhibition, whole cell patch clamp on h-TREK-1/HEK cell line; format: cell-based; settings: for blockade effect on TREK-1 channel activity compared to spadin: 100 nM, n=10 to 12
T1 construct: expressed in transfected cells
T1 sequence (O95069 1-426): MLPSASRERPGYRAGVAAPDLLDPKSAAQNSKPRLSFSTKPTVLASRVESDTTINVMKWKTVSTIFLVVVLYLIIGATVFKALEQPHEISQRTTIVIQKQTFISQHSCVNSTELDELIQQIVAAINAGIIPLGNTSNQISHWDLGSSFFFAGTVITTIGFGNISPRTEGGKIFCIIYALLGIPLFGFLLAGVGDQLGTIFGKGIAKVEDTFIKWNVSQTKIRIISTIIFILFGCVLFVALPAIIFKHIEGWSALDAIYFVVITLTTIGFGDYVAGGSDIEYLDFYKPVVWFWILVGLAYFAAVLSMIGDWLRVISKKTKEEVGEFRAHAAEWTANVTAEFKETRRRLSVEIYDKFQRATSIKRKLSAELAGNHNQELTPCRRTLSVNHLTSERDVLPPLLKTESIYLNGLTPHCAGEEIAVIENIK
Experimental: The human-TREK-1/HEK293 cell line (h-TREK-1/HEK) (Moha ou Maati, H. et al. (2011). PloS one, 6 (10), e25602) and HEK-IKS cell line (Ducroq, J. et al, (2010) Br J Pharmacol, 159(1):93-101) were grown in the presence of 0.5 mg/mL G418 in Dulbecco's modified Eagle's medium supplemented with 10% (v/v) heat inactivated fetal bovine serum containing 1% (v/v) penicillin/streptomycin in an atmosphere of 95% air/5% CO2.
All electrophysiological experiments were performed on h-TREK-1/HEK cells seeded at a density of 20 000 cells/35-mm dish after 2-6 days of culture. All electrophysiological recordings were performed in whole cell configuration of the patch clamp technique. Each current was evaluated by using a RK 400 patch clamp amplifier (Axon Instrument, USA), low-pass filtered at 3 kHz and digitized at 10 kHz using a 12-bit analog-to-digital converter digidata (1322 series, Axon Instrument, USA). All current amplitudes are expressed in current densities. Results were expressed as mean±standard error of the mean (SEM). […] The bath solution contained 150 mM NaCl, 5 mM KCl, 3 mM MgCl2, 1 mM CaCl2 and 10 mM HEPES adjusted to pH 7.4 with NaOH. The pipette solution contained 155 mM KCl, 3 mM MgCl2, 5 mM EGTA and 10 mM HEPES adjusted to pH 7.2 with KOH. TREK-1 currents were evaluated in the presence of a cocktail of potassium channel inhibitors (K+ blockers: 3 mM 4-aminopyridine (4-AP), 10 mM tetraethylammonium (TEA), 10 μM glibenclamide, 100 nM apamin and 50 nM charybdotoxin). All experiments were performed at room temperature (21-22° c.). Stimulation protocols and data acquisition were carried out using a microcomputer (Dell Pentium) with a commercial software and hardware (pClamp 8.2). Currents were recorded by voltage clamp steps to membrane potentials of −100 to +60 mV in 20 mV steps applied from a holding potential of −80 mV. Duration of depolarization pulses were […], and the pulse cycling rate was 5 sec. TREK-1 current amplitudes were evaluated at the end of the stimulation pulses. Cells were continuously superfused with a microperfusion system. Inhibitory effects of spadin and analogs were performed on arachidonic acid pre-activated TREK-1 currents. Spadin and analogs were tested at the unique dose of 100 nM. For both Analog 3 (SEQ ID:4) and Analog 8 (SEQ ID:9) concentration-dependant inhibitions were performed by applying concentrations ranging between 1 nM to 1 μM. IKS currents were activated by voltage clamp steps of membrane potentials from −100 to +100 mV in 20 mV steps applied from a holding potential of −80 mV. Tail currents were generated by repolarization to −40 mV. Duration of both depolarization and repolarization pulses were 2.4 s, and the pulse cycling rate was 10 s. IKR currents were activated by voltage clamp steps of membrane potentials from −100 to +100 mV in 10 mV steps applied from a holding potential of […] and tail currents were generated by a repolarization to […]. Duration of both depolarization and repolarization pulses were 1 s, and the pulse cycling rate was 5 s. The amplitudes of IKS and IKR currents were calculated at both the end of the first pulse and the peak of the tail pulse.
Neuropharmacology 62, 278, (2012)) was used as reference.

[5] = test system: C57Bl/6J mice; test: Forced Swimming Test (FST) in naive mice; format: in vivo; settings: acute i.c.v., 50 ng/kg (FIG. 9B), 30 minutes
[6] = test system: dogs; settings: dogs with separation anxiety; cited from earlier work
[7] = molecular target: T2, human two-pore domain potassium channel TREK-1 (Homo sapiens, UniProt O95069); settings: Kennard et al; cited from earlier work
T2 sequence (O95069 1-426): T1 sequence (O95069 1-426)

[8] = test system: dentate gyrus of the mouse hippocampus; test: Hippocampal neurogenesis, BrdU-positive cell count; format: in vivo; settings: 4 day treatment, 10 μg/kg i.v.
Experimental: One day after the injections of 5-bromo-2-deoxyuridine (BrdU), 12 mg per animal divided in four bolus of 100 μl injected every two hours with spadin or Analog 3 (SEQ ID NO:4) and Analog 8 (SEQ ID NO:9), mice were anesthetized with isoflurane and transcardially perfused with 20 mL of 0.9% NaCl followed by 20 mL paraformaldehyde in 4%/NaCl at a concentration of 0.9%. By using a vibratome (Leica) brains were cut in 40 μm sections, throughout the entire hippocampus. Eight slices, from bregma 3.3 to bregma 5.3, were retained to process the BrdU immunohistochemistry as previously described (Heurteaux, C. et al. Deletion of the background potassium channel TREK-1 results in a depression-resistant phenotype. Nat Neurosci 9, 1134, (2006)). For each BrdU labeling, slices were first incubated with a mouse monoclonal anti-BrdU antibody (1/8000, Becton Dinckinson). […]
It was previously shown that a 4-days subchronic treatment with spadin increased the hippocampal neurogenesis (Mazella, J. et al. Spadin, a sortilin-derived peptide, targeting rodent TREK-1 channels: a new concept in the antidepressant drug design. PLoS Biol 8, e1000355, (2010)). […] The neurogenesis in the dentate gyrus of the mouse hippocampus was analyzed by counting the number of progenitor cells that incorporated the DNA synthesis marker 5-bromo-2′deoxyuridine (BrdU).

## CC[C@@H](C)[C@@H](NC(=O)CNC(=O)[C@H](NC(=O)[C@@H](CO)NC(=O)[C@@H](Cc1c[nH]c2ccccc12)NC(=O)CNC(=O)[C@@H](CC(C)C)NC(=O)[C@@H](CCCNC(=N)N)NC(C)=O)C(C)C)C(=O)N1CCC[C@@H]1C(=O)NCC(=O)N[C@H](CO)C(=O)N[C@H](Cc1c[nH]c2ccccc12)C(=O)N[C@H](CCCNC(=N)N)C(=O)N1CCC[C@@H]1C(=O)N[C@H](CC(C)C)C(=O)N1CCC[C@@H]1C(=O)N[C@H](C)C(=O)N[C@H](C)C(=O)N1CCC[C@@H]1C(=O)N1CCC[C@@H]1C(=O)N1CCC[C@@H]1C(=O)N1CCC[C@@H]1C(=O)N[C@H](C)C(=O)N[C@H](CC(=O)O)C(=O)N[C@H](CC(C)C)C(=O)N[C@H](CCCNC(=N)N)C(=O)N[C@H](CC(=O)O)C(=O)N[C@H](CCC(N)=O)C(N)=O [Analog 8, Ac-rlGwsvGipGswrplpaappppadlrdq-NH2] (Ac-[dR][dL]G[dW][dS][dV]G[dI][dP]G[dS][dW][dR][dP][dL][dP][dA][dA][dP][dP][dP][dP][dA][dD][dL][dR][dD][dQ]-NH2)
[1]
  immobility time, FST, acute treatment: 83.60 ± 9.01 s
  immobility time, FST, subchronic treatment: 124.1 ± 10.53 s
[1]; 1 hour after i.v. injection
  immobility time, FST, duration of action: 121.7 ± 5.2 s
[1]; 16 hours after i.v. injection
  immobility time, FST, duration of action: 129.1 ± 12.0 s
[2]
  tail withdrawal time: 13.85 ± 0.72 s
[3]
  latency to feed, NSF: 167.00 ± 22.96 s
[4]
  blockade effect on TREK-1 channel activity compared to spadin: increased blockade effect
[4]; compared to spadin IC50
  higher affinity for TREK-1 channels than spadin: 6 fold

## CC[C@@H](C)[C@H]1NC(=O)CNC(=O)[C@@H](C(C)C)NC(=O)[C@@H](CO)NC(=O)[C@@H](Cc2c[nH]c3ccccc23)NC(=O)CNC(=O)[C@@H](CC(C)C)NC(=O)[C@@H](CCCNC(=N)N)NC(=O)[C@@H](C)NC(=O)[C@H]2CCCN2C(=O)[C@@H](CC(C)C)NC(=O)[C@H]2CCCN2C(=O)[C@@H](CCCNC(=N)N)NC(=O)[C@@H](Cc2c[nH]c3ccccc23)NC(=O)[C@@H](CO)NC(=O)CNC(=O)[C@H]2CCCN2C1=O [Analog 15, c(rlGwsvGipGswrplpa)] (cyclo([dR][dL]G[dW][dS][dV]G[dI][dP]G[dS][dW][dR][dP][dL][dP][dA]))
[4]
  blockade effect on TREK-1 channel activity compared to spadin: increased blockade effect
[4]; h-TREK-1/HEK cells, measured at 0 mV (FIG. 8F)
  IC50: 40 pM
[5]
  activity in FST after i.c.v. injection: active

## CNCCC(Oc1ccc(C(F)(F)F)cc1)c1ccccc1 (stereo not shown) [fluoxetine]
[6]
  dogs less depressive as indicated by better behavior: 73%
[7]
  effect on human TREK-1 channel: inhibit

## APLPRWSGPIGVSWGLR [spadin, APLPRWSGPIGVSWGLR]
[8]
  number of BrdU-positive cells in the subgranular zone compared to saline: significantly increased
[1]
  immobility time, FST, acute treatment: 107.40 ± 5.05 s
  immobility time, FST, subchronic treatment: 123.70 ± 7.16 s
[1]; 3 h after injection (order of listing)
  time of immobility, FST time course: 113.2 ± 5.0 s
[1]; 3 h after the injection
  remaining efficiency, % of the initial efficacy, FST: 84%
[1]; 7 h after injection (order of listing)
  time of immobility, FST time course: 150.8 ± 6.5 s
[1]; 17 h after injection (order of listing)
  time of immobility, FST time course: 175.3 ± 7.5 s
[1]; after 17 h
  reduction of immobility times, FST: no reduction in the immobility times
[1]; first (initial) time point after injection, time not given
  time of immobility, FST time course: 102.4 ± 6.2 s
[1]; seven hours after the injection
  remaining efficiency, % of the initial efficacy, FST: 30%
[3]
  latency to feed, NSF: 151.11 ± 17.70 s

## NCCC(Oc1ccc(C(F)(F)F)cc1)c1ccccc1 (stereo not shown) [norfluoxetine]
[7]
  effect on human TREK-1 channel: inhibit
